Experimental data published in patent publication US4374147A, “13-Oxo-monic acid esters useful as antibacterial and antimycoplasmal agents” (Beecham Group Limited, priority 1980, dated 1983).
Values after ≈ are worked out from the molar mass of the structure shown.

How the values were obtained:
[1] = tested on: E.coli NCTC 10418; assay: MIC by serial dilution in nutrient agar (human bacteria, Table 1); type: cell-based; conditions: Escherichia coli, NCTC10418, 5% "chocolated" horse blood
[2] = tested on: E.coli ESS; assay: as above; type: cell-based; conditions: Escherichia coli, 5% "chocolated" horse blood
[3] = tested on: P. mirabilis 889; assay: as above; type: cell-based; conditions: Proteus mirabilis, 5% "chocolated" horse blood
[4] = tested on: K. aerogenes A; assay: as above; type: cell-based; conditions: Klebsiella aerogenes, 5% "chocolated" horse blood
[5] = tested on: Ps. aeruginosa 10662; assay: as above; type: cell-based; conditions: Pseudomonas aeruginosa, 5% "chocolated" horse blood
[6] = tested on: Pasteurella multocida 1633; assay: as above; type: cell-based; conditions: Pasteurella multocida, 1633
[7] = tested on: Haemophilus influenzae Q1; assay: as above; type: cell-based; conditions: Haemophilus influenzae Q1; nutrient agar, 5% "chocolated" horse blood; read-out: MIC
[8] = tested on: Haemophilus influenzae Wy21; assay: as above; type: cell-based; conditions: 5% "chocolated" horse blood
[9] = tested on: Neisseria flavesceus 8263; assay: MIC by serial dilution in nutrient agar (human bacteria, Table 1, footnote a); type: cell-based
From the text: | ^ a Neisseria flavesceus 8263

[10] = tested on: Bacillus subtilis 6633; assay: MIC by serial dilution in nutrient agar (human bacteria, Table 1); type: cell-based; conditions: 5% "chocolated" horse blood
[11] = tested on: Corynebacterium xerosis 9755; assay: as above; type: cell-based; conditions: 5% "chocolated" horse blood
[12] = tested on: Sarcina lutea 8340; assay: as above; type: cell-based; conditions: Micrococcus luteus, 5% "chocolated" horse blood
[13] = tested on: Staph.aureus Oxford; assay: as above; type: cell-based; conditions: Staphylococcus aureus; Staph.aureus Oxford; nutrient agar, 5% "chocolated" horse blood; read-out: MIC
[14] = tested on: Staph.aureus Russell; assay: as above; type: cell-based; conditions: Staphylococcus aureus; Staph.aureus Russell; nutrient agar, 5% "chocolated" horse blood; read-out: MIC
[15] = tested on: Strep.faecalis I; assay: as above; type: cell-based; conditions: Enterococcus faecalis, 5% "chocolated" horse blood
[16] = tested on: Strep.pyogenes A 64/848; assay: as above; type: cell-based; conditions: Streptococcus pyogenes, A64/848, 5% "chocolated" horse blood
[17] = tested on: Strep.pyogenes B 2788; assay: as above; type: cell-based; conditions: Streptococcus pyogenes, B2788, 5% "chocolated" horse blood
[18] = tested on: Strep.pyogenes C 2761; assay: as above; type: cell-based; conditions: Streptococcus pyogenes, C2761, 5% "chocolated" horse blood
[19] = tested on: M.dispar NCTC 10125; assay: Anti-mycoplasmal MIC by serial dilution in Friis broth (Table 3); type: cell-based; conditions: read-out: in vitro MIC
From the text: (§1) *Determined by serial dilution in Friis broth (Friis N.F. 1975. Nord. Vet
(§2) Med. 27, 337) in microtiter plates using a modification of the metabolite
(§3) inhibition test (TaylorRobinson D. 1967. Postgrad. Med. J., 43, suppl.

[20] = tested on: M.pneumoniae 427a; assay: as above; type: cell-based; conditions: Mycoplasmoides pneumoniae, read-out: in vitro MIC
From the text: as §1, §2, §3

[21] = tested on: M.suipneumoniae J2206/183b; assay: as above; type: cell-based; conditions: Mesomycoplasma hyopneumoniae, read-out: in vitro MIC
From the text: as §1, §2, §3

[22] = tested on: Gram-positive and Gram-negative organisms; conditions: disclosed in earlier patents; cited from earlier work

Compound: COC(=O)CCCCCCCCOC(=O)/C=C(\C)CC1OCC(CC2OC2C(C)C(C)=O)C(O)C1O (stereo not shown) [Example 1, Methyl 13-Oxopseudomonate A]
- MIC [1]: > 200 µg/mL
- MIC [2]: 2 µg/mL (≈ 3.9 µM)
- MIC [3]: > 200 µg/mL
- MIC [4]: > 200 µg/mL
- MIC [5]: > 200 µg/mL
- MIC [6]: 1 µg/mL (≈ 1.95 µM)
- MIC [7]: 0.5 µg/mL (≈ 0.975 µM)
- MIC [8]: 0.5 µg/mL (≈ 0.975 µM)
- MIC [9]: 1 µg/mL (≈ 1.95 µM)
- MIC [10]: 0.5 µg/mL (≈ 0.975 µM)
- MIC [11]: > 200 µg/mL
- MIC [12]: > 200 µg/mL
- MIC [13]: 0.5 µg/mL (≈ 0.975 µM)
- MIC [14]: 2 µg/mL (≈ 3.9 µM)
- MIC [15]: > 200 µg/mL
- MIC [16]: 0.5 µg/mL (≈ 0.975 µM)
- MIC [17]: 10 µg/mL (≈ 19.5 µM)
- MIC [18]: 2 µg/mL (≈ 3.9 µM)
- MIC [19]: 0.5 µg/mL (≈ 0.975 µM)
- MIC [20]: 250 µg/mL (≈ 488 µM)
- MIC [21]: 62.5 µg/mL (≈ 122 µM)

Compound: CC(=CC(=O)OCCCCCCCCC(=O)O)CC1OCC(CC2OC2C(C)C(C)O)C(O)C1O (stereo not shown) [Pseudomonic acid]
- antibacterial activity [22]: having antibacterial activity
